The nature of data set [1]: Bioavailability of the salt compared with free base and other salts. The class given is in vivo. As to conditions: compared to the free base form of the Agent and other salts.
A short description of data set [2]: Dissolution rate of the salt compared with free base and other salts. The class given is physicochemical. The settings on record: compared to the free base form of the Agent and other salts.
The nature of data set [3]: Bioavailability of the free base form from a conventional tablet formulation. The settings on record: dog, in vivo, oral, in dogs.
Data set [4] in a line: Biopharmaceutical Classification System (BCS) classification. The data set is classed as physicochemical. As to conditions: indicates low solubility/dissolution rate and low permeability.

The record followed here is US12318367B2, “Pharmaceutical composition” (ASTRAZENECA AB, priority 2008, dated 2025).

The structures appear in SMILES notation.

Usually bioavailability stands for dose-corrected exposure relative to a reference, in per cent.

For `Cn1cnc2c(F)c(Nc3ccc(Br)cc3Cl)c(C(=O)NOCCO)cc21` [Agent, 6-(4-bromo-2-chloro-phenylamino)-7-fluoro-3-methyl-3H-benzoimidazole-5-carboxylic acid (2-hydroxy-ethoxy)-amide], the bioavailability result in data set [1] is given as “particularly high”. The dissolution rate result in data set [2] is listed as “particularly high”.
As for `Cn1cnc2c(F)c(Nc3ccc(Br)cc3Cl)c(C(=O)NOCCO)cc21` [free-base form of the Agent, 6-(4-bromo-2-chloro-phenylamino)-7-fluoro-3-methyl-3H-benzoimidazole-5-carboxylic acid (2-hydroxy-ethoxy)-amide], the bioavailability in data set [3] is about 18%. Also, the BCS classification result in data set [4] is “BCS Class 4”.
